Key:
Chemokine CCR1 = molecular target: T1, Chemokine CCR1 (Homo sapiens, UniProt P32246); assay: radioligand binding (Table S2); conditions: [125I] MIP-1α, Human recombinant HEK-293 cells
T1 construct: host or cells: HEK-293 cells

[1] = molecular target: T2, Corticotropin-releasing hormone receptor CRF1 (Homo sapiens, UniProt P34998); assay: radioligand binding (Table S2); conditions: [125I] Sauvagine, Human recombinant CHO cells
T2 construct: host or cells: CHO cells

Galanin GAL1 = Galanin GAL1 (Homo sapiens, UniProt P47211); assay: radioligand binding (Table S2); conditions: [125I] Galanin, Human recombinant HEK-293 cells
[2] = tested on: Glutamate, NMDA, phencyclidine; assay: radioligand binding (Table S2); conditions: [3H] TCP, Wistar rat cerebral cortex
[3] = tested on: Glycine, strychnine-sensitive; assay: radioligand binding (Table S2); conditions: [3H] Strychnine, Wistar rat spinal cord
[4] = molecular target: T3, Gonadotropin-releasing hormone (Homo sapiens, UniProt P30968); assay: radioligand binding (Table S2); conditions: [125I] [D-Trp6]-LH-RH, Human recombinant Chem-1 cells
T3 construct: host or cells: Chem-1 cells

Kainate = assay: radioligand binding (Table S2); conditions: [3H] Kainic acid, Rat cerebral cortex
Melatonin MT1 (ML1A) = molecular target: T4, Melatonin MT1 (ML1A) (Homo sapiens, UniProt P48039); assay: radioligand binding (Table S2); conditions: [125I] 2-iodomelatonin, Human recombinant CHO cells
T4 construct: host or cells: CHO cells

Neuropeptide Y1 = molecular target: T5, Neuropeptide Y1 (Homo sapiens, UniProt P25929); assay: radioligand binding (Table S2); conditions: [125I] Peptide YY, SK-N-MC cells (endogenous)
T5 construct: (endogenous); host or cells: SK-N-MC cells
T5 sequence (P25929 whole entry): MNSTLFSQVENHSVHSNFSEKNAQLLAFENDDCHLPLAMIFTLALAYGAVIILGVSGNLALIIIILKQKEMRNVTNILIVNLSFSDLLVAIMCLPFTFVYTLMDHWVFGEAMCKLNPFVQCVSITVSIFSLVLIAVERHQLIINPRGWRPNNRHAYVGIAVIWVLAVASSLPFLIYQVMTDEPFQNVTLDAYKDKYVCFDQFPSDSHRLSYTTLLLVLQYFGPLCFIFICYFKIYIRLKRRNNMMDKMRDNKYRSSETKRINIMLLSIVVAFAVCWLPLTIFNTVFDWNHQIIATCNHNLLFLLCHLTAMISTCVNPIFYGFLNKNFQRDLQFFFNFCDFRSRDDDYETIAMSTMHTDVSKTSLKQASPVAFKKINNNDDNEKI

Neuropeptide Y2 = molecular target: T6, Neuropeptide Y2 (Homo sapiens, UniProt P49146); assay: radioligand binding (Table S2); conditions: [125I] Peptide YY, KAN-TYS cells
T6 construct: KAN-TYS cells; host or cells: KAN-TYS cells
T6 sequence (P49146 whole entry): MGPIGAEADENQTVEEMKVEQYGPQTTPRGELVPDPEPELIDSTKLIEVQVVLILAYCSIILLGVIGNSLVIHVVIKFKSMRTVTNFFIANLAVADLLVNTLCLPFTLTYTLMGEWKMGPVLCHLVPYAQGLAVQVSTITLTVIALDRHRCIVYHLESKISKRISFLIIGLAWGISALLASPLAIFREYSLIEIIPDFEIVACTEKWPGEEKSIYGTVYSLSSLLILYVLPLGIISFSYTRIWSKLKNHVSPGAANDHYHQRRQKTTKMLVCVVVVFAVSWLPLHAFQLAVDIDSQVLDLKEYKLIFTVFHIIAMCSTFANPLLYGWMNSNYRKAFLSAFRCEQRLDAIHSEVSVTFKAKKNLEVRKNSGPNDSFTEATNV

Neurotensin NT1 = Neurotensin NT1 (Homo sapiens, UniProt P30989); assay: radioligand binding (Table S2); conditions: [125I] Neurotensin, Human recombinant HEK-293 cells
[5] = molecular target: T7, Norepinephrine transporter (Homo sapiens, UniProt P23975); assay: radioligand binding (Table S2); conditions: [3H] Nisoxetine, Human recombinant CHO cells
T7 construct: host or cells: CHO cells
T7 sequence (P23975 whole entry): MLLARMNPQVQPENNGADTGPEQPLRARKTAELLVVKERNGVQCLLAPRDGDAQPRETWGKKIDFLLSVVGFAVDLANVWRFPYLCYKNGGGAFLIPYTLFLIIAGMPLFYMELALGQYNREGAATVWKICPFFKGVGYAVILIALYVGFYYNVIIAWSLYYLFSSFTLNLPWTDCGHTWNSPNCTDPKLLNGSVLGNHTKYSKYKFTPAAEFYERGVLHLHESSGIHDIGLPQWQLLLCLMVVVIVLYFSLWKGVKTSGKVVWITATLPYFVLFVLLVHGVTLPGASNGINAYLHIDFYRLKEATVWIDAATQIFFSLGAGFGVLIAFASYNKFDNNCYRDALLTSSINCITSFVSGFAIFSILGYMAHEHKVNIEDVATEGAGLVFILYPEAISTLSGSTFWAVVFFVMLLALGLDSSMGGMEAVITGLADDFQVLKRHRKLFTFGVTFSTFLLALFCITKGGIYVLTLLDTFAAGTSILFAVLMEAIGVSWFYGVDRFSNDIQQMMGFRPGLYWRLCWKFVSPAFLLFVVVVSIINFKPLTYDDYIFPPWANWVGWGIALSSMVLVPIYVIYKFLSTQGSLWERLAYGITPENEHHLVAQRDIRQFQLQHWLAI

Prostanoid CRTH2 = molecular target: T8, Prostanoid CRTH2 (Homo sapiens, UniProt Q9Y5Y4); assay: radioligand binding (Table S2); conditions: [3H] Prostaglandin D2, Human recombinant CHO-K1 cells
T8 construct: host or cells: CHO-K1 cells
T8 sequence (Q9Y5Y4 whole entry): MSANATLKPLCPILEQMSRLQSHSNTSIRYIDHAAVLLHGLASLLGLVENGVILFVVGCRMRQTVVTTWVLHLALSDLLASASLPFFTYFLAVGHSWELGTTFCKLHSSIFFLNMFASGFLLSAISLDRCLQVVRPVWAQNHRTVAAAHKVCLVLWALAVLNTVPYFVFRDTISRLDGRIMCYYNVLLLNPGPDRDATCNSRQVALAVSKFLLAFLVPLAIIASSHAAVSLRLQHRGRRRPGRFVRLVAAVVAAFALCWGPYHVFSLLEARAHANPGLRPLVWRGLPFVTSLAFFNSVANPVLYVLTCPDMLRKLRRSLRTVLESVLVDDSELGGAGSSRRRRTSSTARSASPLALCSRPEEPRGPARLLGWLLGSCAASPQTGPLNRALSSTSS

Prostanoid EP2 = molecular target: T9, Prostanoid EP2 (Homo sapiens, UniProt P43116); assay: radioligand binding (Table S2); conditions: [3H] Prostaglandin E2, Human recombinant HEK-293 cells
T9 construct: host or cells: HEK-293 cells
T9 sequence (P43116 whole entry): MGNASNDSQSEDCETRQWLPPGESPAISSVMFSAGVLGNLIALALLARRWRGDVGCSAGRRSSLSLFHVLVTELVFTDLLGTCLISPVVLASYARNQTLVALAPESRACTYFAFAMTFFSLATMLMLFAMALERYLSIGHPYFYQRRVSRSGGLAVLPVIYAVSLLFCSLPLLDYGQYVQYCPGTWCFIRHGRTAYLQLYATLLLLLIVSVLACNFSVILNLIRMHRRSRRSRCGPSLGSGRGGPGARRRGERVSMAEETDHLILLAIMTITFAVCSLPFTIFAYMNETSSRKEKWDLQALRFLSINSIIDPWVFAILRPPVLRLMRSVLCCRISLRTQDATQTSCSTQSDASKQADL

Prostanoid FP = molecular target: T10, Prostanoid FP (Homo sapiens, UniProt P43088); assay: radioligand binding (Table S2); conditions: [3H] Prostaglandin F2α, Human recombinant HEK-293 cells
T10 construct: host or cells: HEK-293 cells

Serotonin 5-HT7 = molecular target: T11, Serotonin 5-HT7 (Homo sapiens, UniProt P34969); assay: radioligand binding (Table S2); conditions: [3H] LSD, Human recombinant CHO cells
T11 construct: host or cells: CHO cells

Thyroid hormone = assay: radioligand binding (Table S2); conditions: [125I] Triiodothyronine, Rat liver
[6] = molecular target: T12, Thyrotropin-releasing hormone TRH1 (Homo sapiens, UniProt P34981); assay: radioligand binding (Table S2); conditions: [3H] Me-TRH, Human recombinant CHO cells
T12 construct: host or cells: CHO cells

COX2 = molecular target: T13, COX2 (Homo sapiens, UniProt P35354); assay: enzyme assay (Table S2); type: biochemical; conditions: Arachidonic acid (2 µM) + ADHP, Fluorimetry
T13 construct: Eurofins (assay provider); host or cells: Sf9 cells

Lck kinase = Lck kinase (Homo sapiens, UniProt P06239); assay: enzyme assay (Table S2); type: biochemical; conditions: ATP + Ulight-PolyGAT (25 nM), LANCE
Sequence of Lck kinase (P06239 whole entry): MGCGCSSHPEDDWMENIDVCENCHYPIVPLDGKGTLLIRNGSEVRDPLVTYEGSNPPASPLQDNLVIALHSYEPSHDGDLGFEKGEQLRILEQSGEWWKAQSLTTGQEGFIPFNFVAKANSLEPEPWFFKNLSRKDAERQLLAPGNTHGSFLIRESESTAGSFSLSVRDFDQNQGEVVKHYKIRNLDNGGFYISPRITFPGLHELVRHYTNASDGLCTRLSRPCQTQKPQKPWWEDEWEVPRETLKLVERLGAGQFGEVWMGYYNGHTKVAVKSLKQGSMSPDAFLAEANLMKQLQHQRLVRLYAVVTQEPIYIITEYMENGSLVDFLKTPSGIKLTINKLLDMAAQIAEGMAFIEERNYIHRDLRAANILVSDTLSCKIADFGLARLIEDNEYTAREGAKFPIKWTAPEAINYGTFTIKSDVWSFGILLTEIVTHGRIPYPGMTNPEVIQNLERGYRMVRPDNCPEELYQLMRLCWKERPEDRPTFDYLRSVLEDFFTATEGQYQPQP

PKCα = PKCα (Homo sapiens, UniProt P17252); assay: enzyme assay (Table S2); type: biochemical; conditions: HTRF
C5a = molecular target: T14, C5a (Homo sapiens, UniProt P21730); assay: functional assay, cAMP HTRF, HEK-293 cells (Table S2); type: cell-based
T14 construct: expressed in transfected cells; host or cells: HEK-293 cells
T14 sequence (P21730 whole entry): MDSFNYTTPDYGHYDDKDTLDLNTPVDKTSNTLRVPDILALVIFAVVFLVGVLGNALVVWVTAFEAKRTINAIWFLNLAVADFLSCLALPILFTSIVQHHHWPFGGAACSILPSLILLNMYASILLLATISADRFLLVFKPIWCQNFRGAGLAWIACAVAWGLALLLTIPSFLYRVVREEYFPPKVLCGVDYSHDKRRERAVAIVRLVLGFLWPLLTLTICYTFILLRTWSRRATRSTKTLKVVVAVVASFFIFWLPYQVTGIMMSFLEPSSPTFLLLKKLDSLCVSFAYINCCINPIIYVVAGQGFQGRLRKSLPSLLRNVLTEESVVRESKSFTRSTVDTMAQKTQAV

Neurokinin NK3 = molecular target: T15, Neurokinin NK3 (Homo sapiens, UniProt P29371); assay: functional assay, intracellular [Ca2+], CHO cells (Table S2); type: cell-based
T15 construct: host or cells: CHO cells
T15 sequence (P29371 1-465): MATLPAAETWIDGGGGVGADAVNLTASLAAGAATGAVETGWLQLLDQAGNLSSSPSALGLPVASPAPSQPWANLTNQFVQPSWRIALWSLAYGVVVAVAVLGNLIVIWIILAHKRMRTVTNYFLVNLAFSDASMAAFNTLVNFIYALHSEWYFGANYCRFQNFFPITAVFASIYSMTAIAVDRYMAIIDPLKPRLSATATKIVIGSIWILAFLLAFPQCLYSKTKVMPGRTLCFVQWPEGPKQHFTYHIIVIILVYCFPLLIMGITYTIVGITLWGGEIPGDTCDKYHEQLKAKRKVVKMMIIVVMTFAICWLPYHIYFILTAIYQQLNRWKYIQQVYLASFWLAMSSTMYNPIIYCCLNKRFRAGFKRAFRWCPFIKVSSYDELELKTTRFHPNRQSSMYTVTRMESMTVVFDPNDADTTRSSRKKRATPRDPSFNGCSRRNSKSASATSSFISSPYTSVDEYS

Vasopressin V1a = molecular target: T16, Vasopressin V1a (Homo sapiens, UniProt P37288); assay: as above; type: cell-based; conditions: AVP (10 nM)
T16 construct: host or cells: CHO cells
T16 sequence (P37288 whole entry): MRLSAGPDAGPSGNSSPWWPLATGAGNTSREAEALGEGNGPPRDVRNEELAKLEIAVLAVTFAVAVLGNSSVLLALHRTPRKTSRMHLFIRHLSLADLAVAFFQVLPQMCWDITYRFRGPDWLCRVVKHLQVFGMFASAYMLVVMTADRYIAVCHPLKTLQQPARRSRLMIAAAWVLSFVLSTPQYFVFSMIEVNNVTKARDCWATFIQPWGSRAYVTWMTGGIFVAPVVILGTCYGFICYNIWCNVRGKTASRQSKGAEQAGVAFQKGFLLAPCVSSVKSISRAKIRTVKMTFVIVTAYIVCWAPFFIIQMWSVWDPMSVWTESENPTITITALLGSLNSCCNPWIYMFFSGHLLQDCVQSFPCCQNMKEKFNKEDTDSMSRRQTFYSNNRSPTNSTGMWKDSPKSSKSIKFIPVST

Angiotensine AT1 = Angiotensine AT1 (Homo sapiens, UniProt P30556); assay: radioligand binding (Table S2); conditions: read-out: % Inhibition @ 10 µM
Sequence of Angiotensine AT1 (P30556 whole entry): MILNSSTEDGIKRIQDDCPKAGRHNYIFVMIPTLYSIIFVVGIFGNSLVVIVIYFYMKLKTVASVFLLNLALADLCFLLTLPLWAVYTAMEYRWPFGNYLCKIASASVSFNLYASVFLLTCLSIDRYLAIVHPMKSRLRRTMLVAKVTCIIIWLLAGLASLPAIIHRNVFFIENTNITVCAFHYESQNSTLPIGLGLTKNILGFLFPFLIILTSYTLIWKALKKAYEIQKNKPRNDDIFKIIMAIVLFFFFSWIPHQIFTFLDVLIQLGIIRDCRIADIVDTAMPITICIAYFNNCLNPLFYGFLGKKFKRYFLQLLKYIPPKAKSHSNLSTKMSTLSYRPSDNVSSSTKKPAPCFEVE

Muscarinic M2 = Muscarinic M2 (Homo sapiens, UniProt P08172); assay: radioligand binding (Table S2); conditions: read-out: % Inhibition @ 10 µM
Muscarinic M5 = Muscarinic M5 (Homo sapiens, UniProt P08912); assay: radioligand binding (Table S2); conditions: read-out: % Inhibition @ 10 µM
Sequence of Muscarinic M5 (P08912 whole entry): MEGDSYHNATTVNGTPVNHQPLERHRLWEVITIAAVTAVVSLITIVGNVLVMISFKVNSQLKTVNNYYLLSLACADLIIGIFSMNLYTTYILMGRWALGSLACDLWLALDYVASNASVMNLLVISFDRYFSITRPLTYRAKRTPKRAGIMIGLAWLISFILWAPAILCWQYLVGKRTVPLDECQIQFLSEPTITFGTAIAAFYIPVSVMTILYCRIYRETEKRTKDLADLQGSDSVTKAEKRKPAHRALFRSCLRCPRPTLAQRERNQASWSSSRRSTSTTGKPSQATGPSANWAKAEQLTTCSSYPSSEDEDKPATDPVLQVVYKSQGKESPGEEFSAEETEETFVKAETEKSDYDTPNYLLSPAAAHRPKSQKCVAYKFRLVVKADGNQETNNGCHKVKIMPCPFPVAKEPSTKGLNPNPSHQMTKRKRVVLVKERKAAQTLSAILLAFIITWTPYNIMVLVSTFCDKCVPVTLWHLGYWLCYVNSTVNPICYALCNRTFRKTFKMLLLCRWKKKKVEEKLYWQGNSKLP

T2 sequence (P34998 24-415): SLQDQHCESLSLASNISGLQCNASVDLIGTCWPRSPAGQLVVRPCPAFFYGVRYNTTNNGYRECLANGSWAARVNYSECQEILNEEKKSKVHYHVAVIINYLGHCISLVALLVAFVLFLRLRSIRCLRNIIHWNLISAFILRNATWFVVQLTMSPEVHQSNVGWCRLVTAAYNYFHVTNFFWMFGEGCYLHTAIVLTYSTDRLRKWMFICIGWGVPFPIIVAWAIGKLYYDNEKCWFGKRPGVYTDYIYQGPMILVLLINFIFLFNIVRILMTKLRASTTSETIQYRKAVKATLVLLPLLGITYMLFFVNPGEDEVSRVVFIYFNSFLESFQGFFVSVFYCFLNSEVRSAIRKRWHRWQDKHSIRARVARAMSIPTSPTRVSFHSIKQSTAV

For `Cc1cc(-c2ncnn2C)c2cccc(OCc3c(Cl)cc(F)cc3[C@H](C)NC(=O)COC(F)F)c2n1` [Compound 3, (S)-N-(1-(3-chloro-5-fluoro-2-((2-methyl-4-(1-methyl-1H-1,2,4-triazol-5-yl)quinolin-8-yloxy)methyl)phenyl)ethyl)-2-(difluoromethoxy)acetamide], the inhibition at 10 µM (Chemokine CCR1) was -9.6%, the “% Inhibition @ 10 µM” value [1] was 74% and the inhibition at 10 µM [1] was 73.5%. For the same molecule, the inhibition at 10 µM (Galanin GAL1) was 22.4%, the “% Inhibition @ 10 µM” value [2] was -2% and the “% Inhibition @ 10 µM” value [3] was -1%. For the same molecule, the inhibition at 10 µM [4] was 5%, the “% Inhibition @ 10 µM” value (Kainate) was -4.4% and the inhibition at 10 µM (Melatonin MT1 (ML1A)) was 15.3%. The inhibition at 10 µM (Neuropeptide Y1) was -2.6%, the inhibition at 10 µM (Neuropeptide Y2) was -19.1% and the inhibition at 10 µM (Neurotensin NT1) was 4%. The inhibition at 10 µM [5] was 0.9%, the inhibition at 10 µM (Prostanoid CRTH2) was 3% and the inhibition at 10 µM (Prostanoid EP2) was 12%. For the same molecule, the inhibition at 10 µM (Prostanoid FP) was 19%, the inhibition at 10 µM (Serotonin 5-HT7) was 3.3% and the “% Inhibition @ 10 µM” value (Thyroid hormone) was 6.4%. It also gave an inhibition at 10 µM [6] of 21.7%, an inhibition at 10 µM (COX2) of -18.8% and an inhibition at 10 µM (Lck kinase) of 9.5%. For the same molecule, the inhibition at 10 µM (PKCα) was 1.4%, the inhibition at 10 µM (C5a; HEK293, read-out: % inhibition of reference agonist response @ 10 µM (antagonist effect), hC5a (10 nM)) was -0.2% and the “% of reference agonist response @ 10 µM (agonist effect)” value (C5a; reference hC5a (100 nM)) was -18.1%. For the same molecule, the “% of reference agonist response @ 10 µM (agonist effect)” value (Neurokinin NK3; 10 µM, reference [MePhe7]-NKB (30 nM)) was 7.0%, the inhibition at 10 µM (Neurokinin NK3; CHO, read-out: % inhibition of reference agonist response @ 10 µM (antagonist effect), 10 µM, [MePhe7]-NKB (1 nM)) was 40.8% and the IC50 (Neurokinin NK3; [MePhe7]-NKB (1 nM), read-out: IC50 (µM), functional antagonism) was 17 µM. It also gave a Kb (Neurokinin NK3; [MePhe7]-NKB (1 nM), read-out: Kb (µM), functional antagonism) of 1.6 µM, an IC50 (Vasopressin V1a; read-out: IC50 (µM), functional antagonism) of 9.1 µM and a Kb (Vasopressin V1a; read-out: Kb (µM), functional antagonism) of 0.31 µM. For the same molecule, the inhibition at 10 µM (Vasopressin V1a; CHO, read-out: % inhibition of reference agonist response @ 10 µM (antagonist effect), 10 µM) was 51.9%, the inhibition at 10 µM (Angiotensine AT1) was -4.1% and the inhibition at 10 µM (Muscarinic M2) was -12.4%. It also gave an inhibition at 10 µM (Muscarinic M5) of 5.1%.
